In brackets after ≈: the same amount, converted by molar mass. Entries after “also recorded” stand apart in the source; their conditions may differ. Where a name gives a salt, the structure may show the parent alone. Read-outs that look alike come from different tables or passages of the source.
Legend:
Type in all cases: physicochemical
[1] = Two-sector dissolution study (FaSSGF then FaSSIF), parachute effect; conditions: for Estimated supersaturation duration (parachute effect): second experiment, pH adjusted to 6.5 after FaSSIF addition; for Time of precipitation: protocol of the second experiment
Experimental: The dissolution behaviour of mesylate salt Form 2 of compound A was studied in a two-sector model in comparison with free base Form A to evaluate a possible “spring-parachute effect”.
The parachute effect is observable in two-sector dissolution studies. A test compound is incubated with FaSSGF and its concentration is monitored over time. FaSSIF is then added to the solution whilst continuing the monitoring. The period of time in which the test compound remains in solution without or before precipitating refers to the supersaturation time and represents the parachute effect.
The experiment was conducted using DISS Profiler 6 Channel Pion. The free base Form A and mesylate salt Form 2 of compound A were each incubated in 8 ml of FaSSGF (pH 1.6) for 20 minutes at the concentration of 350 mg/250 ml. 16 ml of FaSSIF concentrated 1.5× (pH 6.5) was added with an incubation time of 180 minutes. The resulting target pH should be approximately 5-6. The experiment was conducted at 37 °C. The entire dissolution profile was monitored until the end of the experiment to evaluate a possible parachute effect, its duration and to evaluate the maximum solubility reached after the addition of FaSSIF.
A second experiment was conducted, with an additional step of adjusting the pH to 6.5 after FaSSIF addition. Both free base Form A and mesylate salt Form 2 of compound A were tested.
A third experiment was conducted on esylate salt Form 1 of compound A, using the same protocol of the second experiment, with free base Form A and mesylate salt Form 2 of compound A as controls. The experiment was aimed at evaluating comparatively a possible parachute effect of the esylate salt and its duration. Precipitation of the free base was observed after roughly 20 minutes, while precipitation of the esylate salt and mesylate salt were observed after 30 and 40 minutes respectively.

[2] = Stability of mesylate salt Form 2 on storage (UPLC/UV/MS and XRPD), open and closed conditions; conditions: for Stability: one year; for XRPD pattern change: open and closed; for % area main peak: 0 days; for Stability (overall): regular and stressed storage conditions
Experimental: The samples were dissolved in solvent (water/ACN 40/60) at about 1 mg/mL and diluted at about 0.07 mg/mL.
Approximately 120 mg of mesylate salt Form 2 of Compound A according to Example 2 was stored in a properly labelled open amber glass vial covered with filter paper to simulate open conditions, and in a screw cap glass to simulate closed conditions. The samples were prepared such that a layer of powder was uniformly spread on the bottom of the vial. Approximately 70 mg of powder were weighed in hydroxypropyl methylcellulose (HPMC) capsules size 3 (Capsugel) and for each condition two capsules were stored. The samples were placed at RT in a desiccator with NaBr to reach about 60% RH and in a stability chamber to reach 75% RH at 40 °C. The stability of the mesylate salt Form 2 of Compound A was thereby tested in four distinct conditions: open condition at 25 °C/60% RH, closed condition at 25 °C/60% RH, open condition at 40 °C/75% RH, and closed condition at 40 °C/75% RH. At the time points 0, 14, 28, 56, 84, 168 and 365 days the corresponding samples were removed from the stability chambers. After conditioning at RT, the samples were analyzed by UPLC/UV/MS and XRPD. One or two extra samples were stored for every condition.

[3] = Formulations in 20% SBE-βCD with citrate buffer: appearance and pH
Experimental: The drug content and homogeneity of the mesylate salt Form 2 and the free base Form A of Compound A in 20% w/v SBE-PCD (Sulfobutyl-ether-β-Cyclodextrin, Captisol; CYDEX Pharmaceutical) were tested at different citrate buffer concentrations such as 0.05 M, 0.1 M, 0.5 M and 1 M, at pH 2.5. To prepare the vehicle, the proper amount of citric acid (Sigma Aldrich; CAS: 77-92-9) was dissolved in water in a volumetric flask, then the pH was increased up to 2.5 using 1M NaOH. Then water was added and brought to the final volume. SBE-PCD was weighed and added in a beaker containing the citrate buffer, then left under stirring until it was dissolved. The required volume of vehicle was added to a known amount of Compound A free base Form A or Mesylate salt Form 2, then sonicated at RT for at least 10 min. The formulation was kept under magnetic stirring for at least 10 min before analysis. The stability in terms of content uniformity and pH were evaluated for up to 8 days. The samples were kept at RT and the nominal concentration was 40 mg/ml.

[4] = Dissolution in simulated oral fluids (FaSSGF, FaSSIF, FeSSIF), DISS Profiler, 37 °C, 24 hours; conditions: for Maximum solubility: 1440 min
Experimental: The dissolution of mesylate salt Form 2 of the compound A in comparison with the free base Form A of compound A was tested in all simulated oral fluids. The experiments were conducted with DISS Profiler 6 Channel Pion. The experiments were conducted until 24 hours at 37 °C.
The mediums used, namely FaSSGF (Fasted State Simulated Gastric Fluid), FaSSIF (Fasted State Simulated Intestinal Fluid) and FeSSIF (Fed State Simulated Intestinal Fluid) were obtained from Biorelevant.com Ltd. The medium compositions are listed in table 9. The saturated solution concentrations were about 14-15 mg/ml (as free base) in FaSSGF and about 3-4 mg/ml (as free base) in FaSSIF and FeSSIF.

[5] = 20% SBE-βCD, citrate buffer 0.05 M, nominal 40 mg/ml
[6] = 20% SBE-βCD, citrate buffer 0.1 M, nominal 40 mg/ml
[7] = 20% SBE-βCD, citrate buffer 0.5 M, nominal 40 mg/ml
[8] = 20% SBE-βCD, citrate buffer 1 M, nominal 40 mg/ml
[9] = 20% SBE-βCD, citrate buffer 0.05 M, nominal 40 mg/ml, listed as Free base Form A
[10] = 20% SBE-βCD, citrate buffer 0.1 M, nominal 40 mg/ml, listed as Free base Form A
[11] = 20% SBE-βCD, citrate buffer 0.5 M, nominal 40 mg/ml, listed as Free base Form A

For COc1cc(-c2ccc(F)cn2)cc2c(N[C@H](C)c3noc(C)n3)ncnc12 [mesylate salt Form 2, (R)-6-(5-fluoropyridin-2-yl)-8-methoxy-N-(1-(5-methyl-1,2,4-oxadiazol-3-yl)ethyl)quinazolin-4-amine], the “pH measured at the end of the experiment” value ([1]; first experiment) was 4.5, the “Precipitation after FaSSIF addition” value ([1]; first experiment, no pH adjustment) was “No precipitation was observed” and the “Estimated supersaturation duration (parachute effect)” value [1] was 14 min. The “Duration of the parachute effect compared to free base Form A” value ([1]; third experiment) was “longer duration of the parachute effect”, the Time of precipitation ([1]; third experiment) was 40 min and the Stability ([2]; 25 °C/60% RH closed) was “remained stable throughout the entire test period”. The Stability ([2]; 25 °C/60% RH open) was “remained stable throughout the entire test period”, the XRPD pattern change ([2]; 25 °C/60% RH) was “no significant changes” and the Stability ([2]; 40 °C/75% RH closed) was “remained stable throughout the entire test period”. For the same compound, the Stability ([2]; 40 °C/75% RH open) was “remained stable throughout the entire test period”, the XRPD pattern change ([2]; 40 °C/75% RH) was “no significant changes” and the “% area main peak” value ([2]; ES+, 25 °C/60% RH closed) was 91.6 % area. For the same compound, the “% area main peak” value ([2]; ES+, 25 °C/60% RH open) was 91.6 % area, the “% area main peak” value ([2]; ES+, 40 °C/75% RH closed) was 91.6 % area and the “% area main peak” value ([2]; ES+, 40 °C/75% RH open) was 91.6 % area. For the same compound, the “% area main peak” value ([2]; ES−, 25 °C/60% RH closed) was 100.0 % area, the “% area main peak” value ([2]; ES−, 25 °C/60% RH open) was 100.0 % area and the “% area main peak” value ([2]; ES−, 40 °C/75% RH closed) was 100.0 % area. The “% area main peak” value ([2]; ES−, 40 °C/75% RH open) was 100.0 % area, the “% area main peak” value ([2]; UV, 25 °C/60% RH closed) was 98.4 % area and the “% area main peak” value ([2]; UV, 25 °C/60% RH open) was 98.4 % area. The “% area main peak” value ([2]; UV, 40 °C/75% RH closed) was 98.4 % area, the “% area main peak” value ([2]; UV, 40 °C/75% RH open) was 98.4 % area and the “Stability (overall)” value [2] was “excellent stability for at least one year at RT; also recorded: remains stable in dry form for at least one year at different conditions”. For the same compound, the “Stability (overall)” value ([2]; listed as mesylate salt) was “stable for several months”, the Appearance [3, 5] was “Solution” and the pH of formulation [3, 5] was 3.0. For the same compound, the Appearance [3, 6] was “Solution”, the pH of formulation [3, 6] was 3.0 and the Appearance [3, 7] was “Solution”. For the same compound, the pH of formulation [3, 7] was 2.8, the Appearance [3, 8] was “Solution” and the pH of formulation [3, 8] was 2.8. The “Formulability in solution compared to free base Form A” value ([3]; 20% SBE-βCD, citrate buffers) was “better formulability in solution”, the “Gelification during the test period” value ([3]; all citrate buffer concentrations, up to 8 days, RT) was “No gelification was observed” and the Appearance ([3]; all concentrations of citrate buffer) was “Stable solutions”. The “pH at the end of the experiment” value ([4]; FaSSGF) was 1.8, the “Time to decrease of solubility / duration of sustained solubility” value ([4]; FaSSGF, 37 °C) was “at least 24 hours” and the Dissolution behaviour ([4]; FaSSGF, 37 °C, 24 hours) was “complete solubilisation was achieved; also recorded: no decrease in the solubility during the 24 hours”. For the same compound, the Maximum solubility ([4]; FaSSGF, 37 °C, 24 hours) was 14.00 mg/mL, the “pH at the end of the experiment” value ([4]; FaSSIF) was 6.1 and the Maximum solubility ([4]; FaSSIF, 37 °C, 24 hours) was 0.10 mg/mL. The “pH at the end of the experiment” value ([4]; FeSSIF) was 5.0, the Maximum solubility ([4]; FeSSIF, 37 °C, 24 hours) was 0.07 mg/mL and the solubility at 24 h ([4]; fassif, read-out: Solubility by UPLC/UV/MS at the end of the experiment) was 30 µg/mL. The solubility at 24 h ([4]; fessif, read-out: Solubility by UPLC/UV/MS at the end of the experiment) was 170 µg/mL.
In the case of COc1cc(-c2ccc(F)cn2)cc2c(N[C@H](C)c3noc(C)n3)ncnc12 [free base Form A, (R)-6-(5-fluoropyridin-2-yl)-8-methoxy-N-(1-(5-methyl-1,2,4-oxadiazol-3-yl)ethyl)quinazolin-4-amine], the “pH after the addition of FaSSIF” value ([1]; first experiment) is reported as 5.8, the “Precipitation start after FaSSIF addition” value ([1]; first experiment, no pH adjustment, 37 °C) is reported as “about 10 minutes” and the “Estimated supersaturation duration (parachute effect)” value [1] is reported as 8 min. For the same compound, the Time of precipitation ([1]; third experiment) was “roughly 20 minutes”, the Appearance [3, 5] was “suspension” and the Appearance [3, 9] was “Fine suspension”. The pH of formulation [3, 9] was 3.1, the Appearance [3, 6] was “suspension” and the Appearance [3, 10] was “Suspension”. The pH of formulation [3, 10] was 3.5, the Appearance [3, 7] was “suspension” and the Appearance [3, 11] was “Thick suspension”. The pH of formulation [3, 11] was 3.2, the Time of gelification ([3]; 20% SBE-βCD, citrate buffer 1 M) was 24 h and the Appearance [3, 8] was “Solution, gel after 24 hours”. The pH of formulation [3, 8] was 3.2, the Time of gelification ([3]; 20% SBE-βCD, citrate buffer 1 M, listed as Free base Form A) was ≤ 24 h and the “pH at the end of the experiment” value ([4]; FaSSGF) was 3.1. The “Time to decrease of solubility / duration of sustained solubility” value ([4]; FaSSGF, 37 °C) was “approximately 3 hours”, the Dissolution behaviour ([4]; FaSSGF, 37 °C, 24 hours) was “steady increase of solubility, but not complete solubilisation” and the “pH at the end of the experiment” value ([4]; FaSSIF) was 6.4. The Maximum solubility ([4]; FaSSIF, 37 °C, 24 hours) was 0.04 mg/mL, the “pH at the end of the experiment” value ([4]; FeSSIF) was 5.1 and the solubility at 24 h ([4]; fassgf, 37 °C, 24 hours, read-out: Maximum solubility) was ~11000 µg/mL (≈ 28.9 mM). The solubility at 24 h ([4]; fessif, 37 °C, 24 hours, read-out: Maximum solubility) was 100 µg/mL (≈ 0.263 mM).

Source: US20260356826A1, “SALTS OF AMINO QUINAZOLINE DERIVATIVES” (CHIESI FARMACEUTICI S.P.A., priority 2023, published 2026)
